We go through ten compounds from ChEMBL document CHEMBL3991601, “The target landscape of clinical kinase drugs” (Science, 2017).

Assay [1] concerns the target T1, Probable ATP-dependent RNA helicase DDX6 (Homo sapiens, UniProt P26196).
T1 sequence (P26196 whole entry): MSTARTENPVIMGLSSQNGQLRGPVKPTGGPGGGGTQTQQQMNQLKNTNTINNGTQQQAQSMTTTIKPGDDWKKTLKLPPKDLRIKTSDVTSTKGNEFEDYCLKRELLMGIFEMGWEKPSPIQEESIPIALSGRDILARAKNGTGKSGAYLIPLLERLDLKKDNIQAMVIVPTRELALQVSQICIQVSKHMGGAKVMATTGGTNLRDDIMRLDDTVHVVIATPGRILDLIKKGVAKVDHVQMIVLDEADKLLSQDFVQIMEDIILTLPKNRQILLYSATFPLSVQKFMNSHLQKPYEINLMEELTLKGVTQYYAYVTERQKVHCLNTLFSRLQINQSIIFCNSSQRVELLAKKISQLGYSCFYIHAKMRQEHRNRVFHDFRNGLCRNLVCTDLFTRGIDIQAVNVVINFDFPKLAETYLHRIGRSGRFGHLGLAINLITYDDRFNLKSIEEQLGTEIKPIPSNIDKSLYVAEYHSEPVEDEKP

Assay [2] addresses Mitogen-activated protein kinase kinase kinase 4 (Homo sapiens, UniProt Q9Y6R4).
Assay [3] has as its target Ribosomal protein S6 kinase beta-1 (Homo sapiens, UniProt P23443).
Assay [4] deals with Dual specificity protein kinase CLK1 (Homo sapiens, UniProt P49759).
Dual specificity protein kinase CLK1, sequence (P49759 whole entry): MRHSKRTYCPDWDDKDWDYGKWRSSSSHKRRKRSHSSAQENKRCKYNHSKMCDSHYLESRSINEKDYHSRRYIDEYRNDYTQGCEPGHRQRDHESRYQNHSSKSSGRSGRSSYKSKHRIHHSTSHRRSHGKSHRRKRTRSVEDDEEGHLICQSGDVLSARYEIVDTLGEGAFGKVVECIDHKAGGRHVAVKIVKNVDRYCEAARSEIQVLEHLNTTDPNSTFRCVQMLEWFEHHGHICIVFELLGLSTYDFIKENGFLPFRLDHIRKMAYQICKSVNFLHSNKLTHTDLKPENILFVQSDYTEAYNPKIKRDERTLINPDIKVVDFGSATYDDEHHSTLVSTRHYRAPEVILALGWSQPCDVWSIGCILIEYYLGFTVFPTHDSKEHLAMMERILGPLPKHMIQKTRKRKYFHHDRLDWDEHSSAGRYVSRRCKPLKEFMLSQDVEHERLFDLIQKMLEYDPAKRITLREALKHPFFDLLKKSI
In assay [5] the target is Protein kinase C beta type (Homo sapiens, UniProt P05771).
Assay [6] has as its target Ephrin type-A receptor 7 (Homo sapiens, UniProt Q15375).
The target of assay [7] is Serine/threonine-protein kinase MRCK beta (Homo sapiens, UniProt Q9Y5S2).
Serine/threonine-protein kinase MRCK beta, sequence (Q9Y5S2 whole entry): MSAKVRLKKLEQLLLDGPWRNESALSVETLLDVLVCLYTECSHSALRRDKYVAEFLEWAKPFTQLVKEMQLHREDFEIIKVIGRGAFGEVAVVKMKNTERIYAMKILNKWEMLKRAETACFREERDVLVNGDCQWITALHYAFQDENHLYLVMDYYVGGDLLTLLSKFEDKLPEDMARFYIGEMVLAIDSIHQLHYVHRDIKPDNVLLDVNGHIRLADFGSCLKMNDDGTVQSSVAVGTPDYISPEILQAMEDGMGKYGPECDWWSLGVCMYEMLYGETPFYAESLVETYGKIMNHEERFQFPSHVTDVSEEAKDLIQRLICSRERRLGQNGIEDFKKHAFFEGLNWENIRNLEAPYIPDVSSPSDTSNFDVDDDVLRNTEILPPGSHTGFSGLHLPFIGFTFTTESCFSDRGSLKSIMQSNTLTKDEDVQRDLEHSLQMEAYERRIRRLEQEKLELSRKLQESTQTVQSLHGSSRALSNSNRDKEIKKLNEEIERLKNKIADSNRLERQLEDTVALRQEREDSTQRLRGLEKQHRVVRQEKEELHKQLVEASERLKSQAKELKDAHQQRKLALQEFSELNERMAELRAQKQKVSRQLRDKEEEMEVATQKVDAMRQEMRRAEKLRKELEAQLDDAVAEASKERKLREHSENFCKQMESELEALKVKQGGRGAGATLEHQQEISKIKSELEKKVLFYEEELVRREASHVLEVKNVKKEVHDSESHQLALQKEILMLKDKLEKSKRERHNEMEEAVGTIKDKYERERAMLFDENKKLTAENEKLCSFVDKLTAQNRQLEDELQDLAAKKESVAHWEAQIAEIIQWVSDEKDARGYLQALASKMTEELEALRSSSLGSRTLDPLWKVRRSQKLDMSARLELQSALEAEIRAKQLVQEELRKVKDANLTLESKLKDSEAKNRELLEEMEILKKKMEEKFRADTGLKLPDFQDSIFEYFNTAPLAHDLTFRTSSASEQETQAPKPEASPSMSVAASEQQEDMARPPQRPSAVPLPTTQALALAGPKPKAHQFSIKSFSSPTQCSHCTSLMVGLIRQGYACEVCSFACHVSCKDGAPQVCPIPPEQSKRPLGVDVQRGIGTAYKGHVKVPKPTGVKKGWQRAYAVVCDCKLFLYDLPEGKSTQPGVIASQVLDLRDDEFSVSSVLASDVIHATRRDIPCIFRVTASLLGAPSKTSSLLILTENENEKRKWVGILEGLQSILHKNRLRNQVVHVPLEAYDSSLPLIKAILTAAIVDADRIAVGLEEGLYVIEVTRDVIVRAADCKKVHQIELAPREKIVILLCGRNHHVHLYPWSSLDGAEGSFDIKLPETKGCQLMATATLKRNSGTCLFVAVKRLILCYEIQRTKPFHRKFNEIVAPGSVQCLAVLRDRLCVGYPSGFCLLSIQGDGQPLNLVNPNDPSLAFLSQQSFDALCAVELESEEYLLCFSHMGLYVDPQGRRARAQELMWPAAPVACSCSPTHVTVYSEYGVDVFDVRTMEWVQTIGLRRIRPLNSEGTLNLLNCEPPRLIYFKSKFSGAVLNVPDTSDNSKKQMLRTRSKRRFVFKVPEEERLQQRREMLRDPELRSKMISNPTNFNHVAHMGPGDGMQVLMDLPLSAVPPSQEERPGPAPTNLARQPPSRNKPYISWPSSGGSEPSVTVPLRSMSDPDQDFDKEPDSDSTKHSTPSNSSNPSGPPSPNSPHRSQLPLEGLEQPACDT
In assay [8] the target is Protein-tyrosine kinase 2-beta (Homo sapiens, UniProt Q14289).
Protein-tyrosine kinase 2-beta, sequence (Q14289 whole entry): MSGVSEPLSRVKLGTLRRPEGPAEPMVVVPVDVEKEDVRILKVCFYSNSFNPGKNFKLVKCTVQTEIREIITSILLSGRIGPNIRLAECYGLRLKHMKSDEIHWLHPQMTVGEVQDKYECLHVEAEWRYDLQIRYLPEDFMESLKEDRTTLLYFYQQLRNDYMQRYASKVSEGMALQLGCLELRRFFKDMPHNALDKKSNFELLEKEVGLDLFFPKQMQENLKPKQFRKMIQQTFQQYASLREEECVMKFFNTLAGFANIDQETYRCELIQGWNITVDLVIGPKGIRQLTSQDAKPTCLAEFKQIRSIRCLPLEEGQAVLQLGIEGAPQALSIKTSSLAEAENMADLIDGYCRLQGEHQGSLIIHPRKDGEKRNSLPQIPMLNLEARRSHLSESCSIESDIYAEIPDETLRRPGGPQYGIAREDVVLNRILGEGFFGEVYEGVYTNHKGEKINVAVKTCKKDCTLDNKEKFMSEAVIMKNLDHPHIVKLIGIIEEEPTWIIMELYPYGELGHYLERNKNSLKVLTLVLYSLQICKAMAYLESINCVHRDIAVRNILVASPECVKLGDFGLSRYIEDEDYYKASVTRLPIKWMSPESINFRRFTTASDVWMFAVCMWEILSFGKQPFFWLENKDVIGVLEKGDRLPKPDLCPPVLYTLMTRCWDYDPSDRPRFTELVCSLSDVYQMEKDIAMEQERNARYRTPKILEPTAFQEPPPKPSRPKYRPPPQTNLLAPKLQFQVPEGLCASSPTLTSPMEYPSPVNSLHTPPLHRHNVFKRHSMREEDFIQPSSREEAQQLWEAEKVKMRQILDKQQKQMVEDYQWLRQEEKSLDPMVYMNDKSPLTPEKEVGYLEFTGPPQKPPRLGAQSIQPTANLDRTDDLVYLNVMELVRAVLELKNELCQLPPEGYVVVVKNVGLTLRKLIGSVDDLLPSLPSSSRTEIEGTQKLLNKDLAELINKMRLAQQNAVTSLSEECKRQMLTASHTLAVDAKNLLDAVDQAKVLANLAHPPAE
Assay [9] addresses Casein kinase II subunit alpha' (Homo sapiens, UniProt P19784).
Assay [10] deals with Ribosomal protein S6 kinase alpha-5 (Homo sapiens, UniProt O75582).
Ribosomal protein S6 kinase alpha-5, sequence (O75582 whole entry): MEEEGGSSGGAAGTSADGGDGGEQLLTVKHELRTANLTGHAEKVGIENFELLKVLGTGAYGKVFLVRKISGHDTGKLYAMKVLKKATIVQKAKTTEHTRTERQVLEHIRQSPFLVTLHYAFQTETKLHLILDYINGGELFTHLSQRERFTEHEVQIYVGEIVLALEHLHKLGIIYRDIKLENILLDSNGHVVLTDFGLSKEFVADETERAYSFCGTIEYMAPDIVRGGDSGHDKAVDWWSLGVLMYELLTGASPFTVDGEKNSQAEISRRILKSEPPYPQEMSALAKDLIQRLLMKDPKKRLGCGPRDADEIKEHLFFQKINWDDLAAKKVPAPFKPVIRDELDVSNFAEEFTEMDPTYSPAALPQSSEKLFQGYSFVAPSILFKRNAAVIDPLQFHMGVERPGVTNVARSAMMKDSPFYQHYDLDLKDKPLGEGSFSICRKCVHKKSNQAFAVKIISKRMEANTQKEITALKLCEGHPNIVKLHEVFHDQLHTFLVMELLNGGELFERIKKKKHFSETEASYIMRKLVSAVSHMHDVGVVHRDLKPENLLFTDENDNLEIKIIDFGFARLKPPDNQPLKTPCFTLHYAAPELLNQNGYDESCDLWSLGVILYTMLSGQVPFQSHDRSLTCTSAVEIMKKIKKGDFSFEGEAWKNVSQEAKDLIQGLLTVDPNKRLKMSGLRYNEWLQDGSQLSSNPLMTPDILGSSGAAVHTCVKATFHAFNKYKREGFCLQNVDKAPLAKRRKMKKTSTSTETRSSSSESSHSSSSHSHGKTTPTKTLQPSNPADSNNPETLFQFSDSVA
For assay [11], the target named is T2, Tyrosine-protein kinase Tec (Homo sapiens, UniProt P42680).
T2 sequence (P42680 whole entry): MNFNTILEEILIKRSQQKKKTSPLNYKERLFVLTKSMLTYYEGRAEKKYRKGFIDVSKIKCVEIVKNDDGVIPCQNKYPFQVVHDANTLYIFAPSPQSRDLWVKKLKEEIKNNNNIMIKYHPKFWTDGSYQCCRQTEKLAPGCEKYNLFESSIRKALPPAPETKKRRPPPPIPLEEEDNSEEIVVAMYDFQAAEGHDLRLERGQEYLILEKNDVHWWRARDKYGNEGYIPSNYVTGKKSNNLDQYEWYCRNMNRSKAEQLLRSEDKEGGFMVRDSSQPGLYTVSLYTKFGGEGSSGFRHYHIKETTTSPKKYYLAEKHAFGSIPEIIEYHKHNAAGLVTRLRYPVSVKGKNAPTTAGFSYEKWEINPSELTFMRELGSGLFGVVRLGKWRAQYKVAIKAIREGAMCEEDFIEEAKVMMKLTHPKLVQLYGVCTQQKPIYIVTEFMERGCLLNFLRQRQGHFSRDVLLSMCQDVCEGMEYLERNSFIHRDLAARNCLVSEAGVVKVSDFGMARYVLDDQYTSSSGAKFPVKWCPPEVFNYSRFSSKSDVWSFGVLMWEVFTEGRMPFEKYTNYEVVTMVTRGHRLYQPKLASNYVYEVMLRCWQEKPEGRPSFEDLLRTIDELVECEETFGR

Assay [12] addresses T3, Serine/threonine-protein kinase TAO1 (Homo sapiens, UniProt Q7L7X3).
T3 sequence (Q7L7X3 whole entry): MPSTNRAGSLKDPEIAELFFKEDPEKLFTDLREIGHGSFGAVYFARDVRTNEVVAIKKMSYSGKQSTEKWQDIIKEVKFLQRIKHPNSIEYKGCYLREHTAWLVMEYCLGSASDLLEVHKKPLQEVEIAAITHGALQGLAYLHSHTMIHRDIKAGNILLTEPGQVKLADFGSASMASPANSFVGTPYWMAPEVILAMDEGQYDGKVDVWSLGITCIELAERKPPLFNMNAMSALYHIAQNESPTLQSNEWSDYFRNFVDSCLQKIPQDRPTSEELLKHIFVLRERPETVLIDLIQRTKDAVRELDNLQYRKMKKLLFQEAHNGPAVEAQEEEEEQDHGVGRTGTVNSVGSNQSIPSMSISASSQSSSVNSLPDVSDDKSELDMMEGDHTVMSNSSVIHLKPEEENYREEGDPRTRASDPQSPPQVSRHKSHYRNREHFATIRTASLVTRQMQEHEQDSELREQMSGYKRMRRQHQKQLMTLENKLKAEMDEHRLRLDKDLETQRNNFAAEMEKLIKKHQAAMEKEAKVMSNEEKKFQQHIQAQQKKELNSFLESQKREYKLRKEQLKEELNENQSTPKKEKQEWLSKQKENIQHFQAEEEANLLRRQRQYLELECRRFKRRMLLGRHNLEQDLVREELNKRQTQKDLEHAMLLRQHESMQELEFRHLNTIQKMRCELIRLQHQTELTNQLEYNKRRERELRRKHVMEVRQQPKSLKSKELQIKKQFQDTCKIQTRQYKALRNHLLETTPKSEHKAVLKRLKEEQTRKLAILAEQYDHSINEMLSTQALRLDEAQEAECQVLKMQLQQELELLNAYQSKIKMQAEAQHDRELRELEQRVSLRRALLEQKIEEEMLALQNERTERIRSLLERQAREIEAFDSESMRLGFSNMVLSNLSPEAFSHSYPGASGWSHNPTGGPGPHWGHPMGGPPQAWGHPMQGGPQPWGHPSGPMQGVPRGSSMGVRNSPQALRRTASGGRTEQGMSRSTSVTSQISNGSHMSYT

As a reminder, the Kd is the equilibrium constant for the complex coming apart.

Calls of active or inactive are those of the source. Cut-off read from the data, not from the text of the source, for most assays here: actives have a measured Kd and inactives only a lower limit.
Note: in the data inactive means no Kd found up to 30 µM.

Ribosomal protein S6 kinase beta-1, sequence (P23443 whole entry): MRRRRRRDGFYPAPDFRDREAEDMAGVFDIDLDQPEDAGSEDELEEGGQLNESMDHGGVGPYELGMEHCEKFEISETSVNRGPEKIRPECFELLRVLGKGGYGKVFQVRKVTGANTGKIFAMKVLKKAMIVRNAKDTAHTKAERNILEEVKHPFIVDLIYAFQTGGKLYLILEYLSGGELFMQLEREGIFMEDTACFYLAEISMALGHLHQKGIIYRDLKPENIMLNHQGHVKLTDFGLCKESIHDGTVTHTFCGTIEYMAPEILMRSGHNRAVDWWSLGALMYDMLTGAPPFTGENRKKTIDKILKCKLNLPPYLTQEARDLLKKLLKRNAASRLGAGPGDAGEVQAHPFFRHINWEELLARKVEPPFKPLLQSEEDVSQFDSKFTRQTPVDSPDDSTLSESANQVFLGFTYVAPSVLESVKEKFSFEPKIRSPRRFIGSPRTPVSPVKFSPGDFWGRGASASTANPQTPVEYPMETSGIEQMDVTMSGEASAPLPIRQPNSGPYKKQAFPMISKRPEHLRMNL
Casein kinase II subunit alpha', sequence (P19784 whole entry): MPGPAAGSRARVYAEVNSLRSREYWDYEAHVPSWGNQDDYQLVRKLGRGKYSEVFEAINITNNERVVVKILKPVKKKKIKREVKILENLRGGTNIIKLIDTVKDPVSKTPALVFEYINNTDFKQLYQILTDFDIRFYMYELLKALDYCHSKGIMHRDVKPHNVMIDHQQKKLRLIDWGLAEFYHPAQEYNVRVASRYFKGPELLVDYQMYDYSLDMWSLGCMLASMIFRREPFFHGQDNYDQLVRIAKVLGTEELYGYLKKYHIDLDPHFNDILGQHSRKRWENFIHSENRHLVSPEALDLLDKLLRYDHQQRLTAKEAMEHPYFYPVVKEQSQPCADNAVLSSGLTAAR

With `Cc1cc(C(=O)Nc2cc(Oc3ccc4nc(NC(=O)C5CC5)cn4n3)ccc2C)n(C)n1` [TAK-593], the Kd in [1], in [2], in assay [3], in [4], in assay [5] and in [6] was > 30 µM (inactive) each time. The Kd in assay [7], in [8], in assay [9], in assay [10], in assay [11] and in assay [12] was > 30 µM (inactive) each time.
As to `Cn1cc(-c2[nH]c3cc(NC(=O)[C@H](N)C4CCCCC4)cc4c3c2C=NNC4=O)cn1`, the Kd is > 30 µM (inactive) in [1]; > 30 µM (inactive) in assay [2]; 2.38 µM (active) in assay [3]; > 30 µM (inactive) in assay [4]; > 30 µM (inactive) in assay [5]; > 30 µM (inactive) in assay [6]. Further, the Kd was > 30 µM (inactive) in [7]; > 30 µM (inactive) in assay [8]; 14.8 µM (active) in [9]; > 30 µM (inactive) in assay [10]; > 30 µM (inactive) in [11]; > 30 µM (inactive) in [12].
Regarding `C[C@@H]1COC(Nc2ccc3ncnc(Nc4ccc(OCc5nccs5)c(Cl)c4)c3c2)=N1` [VARLITINIB], the Kd in [1], in assay [2], in assay [3], in [4], in assay [5] and in assay [6] was > 30 µM (inactive) throughout. The Kd in assay [7], in assay [8], in assay [9], in assay [10], in assay [11] and in assay [12] was > 30 µM (inactive) in each case.
As to `CCc1cc2c(cc1N1CCC(N3CCOCC3)CC1)C(C)(C)c1[nH]c3cc(C#N)ccc3c1C2=O` [ALECTINIB], the Kd in assay [1] was > 30 µM (inactive); in assay [2] it was > 30 µM (inactive); in [3] it was > 30 µM (inactive); in [4], 29.9 µM (active); in assay [5], > 30 µM (inactive); in [6], > 30 µM (inactive). Besides, the Kd in [7], in [8], in assay [9], in [10], in assay [11] and in assay [12] was > 30 µM (inactive) in each case.
`C#Cc1cccc(Nc2ncnc3cc4c(cc23)OCCOCCOCCO4)c1` [ICOTINIB]: the Kd in assay [1], in [2], in [3], in assay [4], in assay [5] and in [6] was > 30 µM (inactive) each time. Also, the Kd in [7], in assay [8], in [9], in assay [10], in assay [11] and in [12] was > 30 µM (inactive) in each case.
Consider `CC1(COc2ccc3c(c2)ncn3-c2ccc3cccc(N4CCC(N)CC4)c3n2)COC1` [CRENOLANIB], for which the Kd in assay [1], in assay [2], in [3], in assay [4], in assay [5] and in assay [6] was > 30 µM (inactive) throughout. The Kd in assay [7] was > 30 µM (inactive); in [8] it was > 30 µM (inactive); in assay [9], > 30 µM (inactive); in [10], > 30 µM (inactive); in assay [11] it was > 30 µM (inactive); in assay [12], 1.24 µM.
Consider `Cn1c(=O)c(F)c(Nc2ccc(I)cc2F)c2c(=O)n(C[C@@H](O)CO)cnc21` [TAK-733], for which the Kd in assay [1], in [2], in assay [3], in [4], in assay [5] and in [6] was > 30 µM (inactive) in each case. Also, the Kd in assay [7], in assay [8], in [9], in assay [10], in assay [11] and in assay [12] was > 30 µM (inactive) throughout.
Take `FC(F)(F)c1ccc(CNc2ccc(Cc3c[nH]c4ncc(Cl)cc34)cn2)cn1` [PEXIDARTINIB]: the Kd in assay [1], in assay [2], in assay [3], in assay [4], in assay [5] and in assay [6] was > 30 µM (inactive) in each case. Also, the Kd in [7], in assay [8], in [9], in assay [10], in assay [11] and in assay [12] was > 30 µM (inactive) in each case.
With `COc1ccc2c(OCc3nnc4ccc(-c5ccccc5)nn34)ccnc2c1` [AMG-208], the Kd in assay [1], in [2], in [3], in [4], in assay [5] and in [6] was > 30 µM (inactive) throughout. The Kd in assay [7], in [8], in [9], in [10], in assay [11] and in assay [12] was > 30 µM (inactive) in each case.
Consider `Cc1cc(-c2cc(OC(=O)c3ccccc3)ccc2Cl)cc2nnc(Nc3ccc(OCCN4CCCC4)cc3)nc12` [TG100-801], for which the Kd in assay [1], in assay [2], in assay [3], in assay [4], in assay [5] and in [6] was > 30 µM (inactive) each time. In addition, the Kd in [7], in assay [8], in assay [9], in [10], in [11] and in [12] was > 30 µM (inactive) in each case.
